# Test results reported in patent US12398121B2 (Nuvation Bio Inc., priority 2018, dated 2025).
# Where two headings read alike, the source gives them in different places.
# Experiments:
# Human recombinant PARP2 = Human recombinant PARP2 (Homo sapiens, UniProt Q9UGN5); assay: RBC HotSpot PARP2 radioisotope-based filter binding assay; assay type: biochemical
# Description: The following methods are for evaluating the in vitro biology properties of the test articles. • a. RBC HotSpot Poly(ADP-ribose) Polymerases 1 (PARP1) and Poly(ADP-ribose) Polymerases 2 (PARP2) Assays: The assay principle is radioisotope-based filter binding assay where incorporation of radioisotope-labeled NAD^+ into the substrate captured on filter is detected after washout free NAD^+. Data were analyzed using Excel and GraphPad Prism software for IC50 curve fits. Each assay was conducted with PJ34 as a positive control. • i. PARP1 assay: Human recombinant PARP1 at a final concentration of 2.5 nM was combined with histone H4 (20 μM) and test articles at various concentrations in reaction buffer (50 mM Tris-HCL, pH 8.0, 50 mM NaCl, 10 mM MgCl2, 1 mM DTT, 1% DMSO, and 20 μg/mL activated DNA). The solution was inoculated for 20 min at room temperature and the reaction initiated by adding [adenylate-^32P]-Nicotinamide Adenine Dinucleotide, ^32P-NAD^+ at a final concentration of 10 μM. After incubation for 2 hour at room temperature, the reaction mixture was filtered and washed with 0.75% phosphoric acid for radioactivity detection. • ii. PARP2 assay: Human recombinant PARP2 at a final concentration of 2.5 nM was combined with histone H3 (20 μM) and test articles at various concentrations in reaction buffer (50 mM Tris-HCL, pH 8.0, 50 mM NaCl, 10 mM MgCl2, 1 mM DTT, 1% DMSO, and 20 μg/mL activated DNA). The solution was inoculated for 20 min at room temperature and the reaction was initiated by adding [adenylate-^32P]-Nicotinamide Adenine Dinucleotide, ^32P-NAD^+ at a final concentration of 10 μM. After incubation for 2 hour at room temperature, the reaction mixture was filtered and washed with 0.75% phosphoric acid for radioactivity detection. • b. AR binding assay: AR in LNCaP cytosol was used for determining the binding affinity of test articles and the reference compound—progesterone (Sigma, Cat: E2785, St. Louis, MO). IC50s were determined using 8 concentrations/compound. Cytosol was plated at 200 μg/well (100 μL) into a 96-well conical polypropylene plate (Agilent, Cat: 5042-1385, Santa Clara, CA) and mixed with 3 μL of test compound. After adding 100 μL of ^3H-methyltrienolone (PerkinElmer, Cat: NET590250UC, San Jose, CA), the plate was sealed and shaken at 300 rpm at 4° C. for 24 hours. Post incubation, 100 μL of radioligand adsorption buffer containing 10 mM Tris-HCl, pH 7.4; 1.5 mM EDTA; 1 mM DTT; 0.25% charcoal; 0.0025% dextran was added to individual well. Plate was shaken for 15 min at 4′C followed by centrifugation at 3000 rpm for 30 min at 4° C. 150 μL of supernatant was transferred into scint-tube (PerkinElmer, Cat: 6000192) and mixed with 2 mL of Ultima Gold Cocktail (PerkinElmer, Cat: 6013329). Radioactivity was counted using a TriCarb 2910 TR scintillation counter (PerkinElmer). Inhibition of the radioactivity by test articles were calculated using the equation below: % Inhibition=(1−(Assay well−Average_LC)/(Average_HC−Average_LC))×100%.
# HT-29 cells = assay: Cell proliferation assay (CellTiter Glo), HT-29; assay type: cell-based; conditions: Homo sapiens, HT-29, 72 h, read-out: HT-29 IC50
# Description: IC50 values were calculated and graphed using the model “log(inhibitor) vs. response—Variable slope” included in GraphPad Prism 5 (San Diego, CA). The Ki values were further calculated using the equation below where [L] was the radioligand concentration (1 nM) using in this study. Kd value was 0.332 nM. Ki=IC50/(1+[L]/Kd) c. AR transactivation: Human AR cloned into a CMV vector backbone was used for the transactivation study. HEK-293 cells were plated at 80,000 cells per well of a 24 well plate in DME+5% csFBS. Twenty four hours later, the cells were transfected using Lipofectamine (Invitrogen, Carlsbad, CA) with 0.25 μg GRE-LUC, 0.01 μg CMV-LUC (renilla luciferase) and 25 ng of the AR in OPTIMEM medium. The cells were treated 24 hrs after transfection with various ligands (10^−12 to 10^−5 M final concentrations) and luciferase assay were performed 48 hours after transfection. Firefly values were normalized to renilla luciferase values and the values were represented as relative light units (RLU). Agonist and antagonist assays for the test article were performed in the absence and in the combination with 0.1 nM R1881, respectively. Data were represented as EC50 (for agonists) and IC50 (for antagonists) obtained from four parameter logistics curve. Cell culture and proliferation assays: LNCaP, PC-3, 22RV1, MCF-7, HT-29, and HCT-116 cells were procured from American Type Culture Collection (ATCC). Cells were cultured in medium recommended by the ATCC. Cell culture medium was obtained from Fisher scientific (Waltham, MA) and serum was obtained from Hyclone (San Angelo, TX).
# Cells were plated at varying density in the respective growth medium in 96 well plates. 24 hr later, cells were treated, in triplicate or quadruplicate, with test articles prepared in a range of concentrations by series dilution of DMSO stock solutions in growth medium and incubated for three to seven days. The number of viable 22RV1 and HT-29 cells was measured using CellTiter Glo assay (CTG, Promega, Madison, WI) after three days of treatment. The other types of cancer cells were re-treated at three or four days and the number of viable cells was measured using CTG assay after a total treatment time of six or seven days. Cell viability data were plotted using GraphPad Prism (GraphPad Software, Inc., San Diego, CA). In addition, a nonlinear regression model with a sigmoidal dose response and variable slope within GraphPad Prism was used to calculate the IC50 value of individual test articles. Additional cell proliferation assays: Other cancer cell lines are tested in a cell proliferation assay. For example, SK-OV-3 or OVCAR3 ovarian cancer cells are tested. Cells are cultured in medium recommended by the supplier (e.g., ATCC or JCRB Cell Bank), at 37° C. in a 5% CO2 environment. For the proliferation assay, cells are plated in the growth medium in 96 well plates. Seeding density is adjusted according to the cell type. 24 hr later, cells are treated, in triplicate or quadruplicate, with test articles prepared in a range of concentrations by series dilution of DMSO stock solutions in growth medium, and typically incubated for three to seven days, with test article-containing medium replaced after three or four days. The number of viable cells is measured using CellTiter Glo assay (CTG, Promega, Madison, WI) or similar. Cell viability data are plotted using GraphPad Prism (GraphPad Software, Inc., San Diego, CA). In addition, a nonlinear regression model with a sigmoidal dose response and variable slope within GraphPad Prism is used to calculate the IC50 value of individual test articles. Similarly, HEK-293 and HeLa calls can also be tested by methods known in the art. • f. Nuclear translocation: LNCaP cells are plated on coverslips in 24 well plates in growth medium. Twenty-four hours after plating, medium is changed to RPMI+1% csFBS and the cells are maintained in this medium for two days. Medium is replaced again and the cells are treated. […]
# [1] = 2.5 nM enzyme, histone H3, 10 μM 32P-NAD+, read-out: PARP2 IC50
# [2] = cell growth inhibition, three days of treatment
# Sequence of Human recombinant PARP2 (Q9UGN5 whole entry): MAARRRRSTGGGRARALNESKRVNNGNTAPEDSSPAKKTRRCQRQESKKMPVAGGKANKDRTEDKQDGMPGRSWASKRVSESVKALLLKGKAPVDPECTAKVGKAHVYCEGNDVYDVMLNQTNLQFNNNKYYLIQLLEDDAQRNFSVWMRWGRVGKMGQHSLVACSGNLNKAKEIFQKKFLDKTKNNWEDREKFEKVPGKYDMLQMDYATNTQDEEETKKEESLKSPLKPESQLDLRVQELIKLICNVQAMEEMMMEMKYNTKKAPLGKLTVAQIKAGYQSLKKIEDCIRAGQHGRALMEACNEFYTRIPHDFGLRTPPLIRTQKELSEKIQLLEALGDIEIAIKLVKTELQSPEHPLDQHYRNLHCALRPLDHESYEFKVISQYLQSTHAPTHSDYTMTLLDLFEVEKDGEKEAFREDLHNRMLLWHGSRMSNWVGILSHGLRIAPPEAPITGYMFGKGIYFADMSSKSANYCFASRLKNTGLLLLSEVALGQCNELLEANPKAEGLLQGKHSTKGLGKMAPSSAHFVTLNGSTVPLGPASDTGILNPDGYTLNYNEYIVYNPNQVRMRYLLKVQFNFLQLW
Compound,IC50 (Human recombinant PARP2) [nM],IC50 (HT-29 cells) [µM],IC50 (Human recombinant PARP2; [1]) [nM],IC50 (HT-29 cells; [2]) [µM]
"CC(O)(CS(=O)(=O)c1ccc(NCCn2cc(CN3CCN(C(=O)c4cc(Cc5n[nH]c(=O)c6ccccc56)ccc4F)CC3)nn2)cc1)C(=O)Nc1ccc(C#N)c(C(F)(F)F)c1 (stereo in doubt) [Compound 1.97, (S)-N-(4-cyano-3-(trifluoromethyl)phenyl)-3-(4-(2-(4-((4-(2-fluoro-5-((4-oxo-3,4-dihydrophthalazin-1-yl)methyl)benzoyl)piperazin-1-yl)methyl)-1H-1,2,3-triazol-1-yl)ethylamino)phenylsulfonyl)-2-hydroxy-2-methylpropanamide]",0.4,> 30,–,–
"CC1(C)C(=O)N(c2ccc(C#N)c(C(F)(F)F)c2)C(=S)N1c1ccc(C(=O)NCCCCCC(=O)N2CCN(C(=O)c3cc(Cc4n[nH]c(=O)c5ccccc45)ccc3F)CC2)c(F)c1 [Compound 1.1, 4-(3-(4-cyano-3-(trifluoromethyl)phenyl)-5,5-dimethyl-4-oxo-2-thioxoimidazolidin-1-yl)-2-fluoro-N-(6-(4-(2-fluoro-5-((4-oxo-3,4-dihydrophthalazin-1-yl)methyl)benzoyl)piperazin-1-yl)-6-oxohexyl)benzamide]",0.2,0.3,–,–
"C[C@]12CCC(=O)C[C@@H]1CC[C@@H]1[C@@H]2CC[C@]2(C)[C@@H](OCCCCCC(=O)N3CCN(C(=O)c4cc(Cc5n[nH]c(=O)c6ccccc56)ccc4F)CC3)CC[C@@H]12 [Compound 1.2, 4-(3-(4-(6-(((5S,8R,9S,10S,13S,14S,17S)-10,13-dimethyl-3-oxohexadecahydro-1H-cyclopenta[a]phenanthren-17-yl)oxy)hexanoyl)piperazine-1-carbonyl)-4-fluorobenzyl)phthalazin-1(2H)-one]",–,> 10,0.2,–
"CC1(C)C(=O)N(c2ccc(C#N)c(C(F)(F)F)c2)C(=S)N1c1ccc(C(=O)NCCCCCCNCc2ccc(-c3[nH]c4cc(F)cc5c4c3CCNC5=O)cc2)c(F)c1 [Compound 1.5, 4-(3-(4-cyano-3-(trifluoromethyl)phenyl)-5,5-dimethyl-4-oxo-2-thioxoimidazolidin-1-yl)-2-fluoro-N-(6-((4-(8-fluoro-1-oxo-2,3,4,6-tetrahydro-1H-azepino[5,4,3-cd]indol-5-yl)benzyl)amino)hexyl)benzamide]",2,5,–,–
"C[C@](O)(CS(=O)(=O)c1ccc(NCCCCCC(=O)N2CCN(C(=O)c3cc(Cc4n[nH]c(=O)c5ccccc45)ccc3F)CC2)cc1)C(=O)Nc1ccc(C#N)c(C(F)(F)F)c1 [Compound 1.68, (R)-N-(4-cyano-3-(trifluoromethyl)phenyl)-3-(4-(6-(4-(2-fluoro-5-((4-oxo-3,4-dihydrophthalazin-1-yl)methyl)benzoyl)piperazin-1-yl)-6-oxohexylamino)phenylsulfonyl)-2-hydroxy-2-methylpropanamide]",0.2,> 10,–,–
"C[C@](O)(COc1ccc(NCCCCCC(=O)N2CCN(C(=O)c3cc(Cc4n[nH]c(=O)c5ccccc45)ccc3F)CC2)cc1)C(=O)Nc1ccc(C#N)c(C(F)(F)F)c1 [Compound 1.83, (S)-N-(4-cyano-3-(trifluoromethyl)phenyl)-3-(4-(6-(4-(2-fluoro-5-((4-oxo-3,4-dihydrophthalazin-1-yl)methyl)benzoyl)piperazin-1-yl)-6-oxohexylamino)phenoxy)-2-hydroxy-2-methylpropanamide]",–,> 10,0.3,–
"C[C@]12CCC(=O)C[C@@H]1CC[C@@H]1[C@@H]2CC[C@]2(C)[C@@H](OCCOCC(=O)N3CCN(C(=O)c4cc(Cc5n[nH]c(=O)c6ccccc56)ccc4F)CC3)CC[C@@H]12 [Compound 1.104, 4-(3-(4-(2-(2-((5S,8R,9S,10S,13S,14S,17S)-10,13-dimethyl-3-oxohexadeca hydro-1H-cyclopenta[a]phenanthren-17-yloxy)ethoxy)acetyl)piperazine-1-carbonyl)-4-fluorobenzyl)phthalazin-1(2H)-one]",–,–,0.3,9.3
"C[C@]12CCC(=O)C[C@@H]1CC[C@@H]1[C@@H]2CC[C@]2(C)[C@@H](OCC(=O)N3CCN(C(=O)c4cc(Cc5n[nH]c(=O)c6ccccc56)ccc4F)CC3)CC[C@@H]12 [Compound 1.110, 4-(3-(4-(2-((5S,8R,9S,10S,13S,14S,17S)-10,13-dimethyl-3-oxohexadecahydro-1H-cyclopenta[a]phenanthren-17-yloxy)acetyl)piperazine-1-carbonyl)-4-fluorobenzyl)phthalazin-1(2H)-one]",–,–,0.2,9.5
"O=C(c1ccc(OCCN2CCN(C(=O)c3cc(Cc4n[nH]c(=O)c5ccccc45)ccc3F)CC2)cc1)c1c(-c2ccc(O)cc2)sc2cc(O)ccc12 [Compound 2.13, 4-(4-fluoro-3-(4-(2-(4-(6-hydroxy-2-(4-hydroxyphenyl)benzo[b]thiophene-3-carbonyl)phenoxy)ethyl)piperazine-1-carbonyl)benzyl)phthalazin-1(2H)-one]",–,–,0.5,6
"CCC(=C(c1ccc(O)cc1)c1ccc(OCCN2CCN(C(=O)c3cc(Cc4n[nH]c(=O)c5ccccc45)ccc3F)CC2)cc1)c1ccccc1 [Compound 2.14, 4-(4-fluoro-3-(4-(2-(4-(1-(4-hydroxyphenyl)-2-phenylbut-1-enyl)phenoxy)ethyl)piperazine-1-carbonyl)benzyl)pthalazin-1(2H)-one]",–,–,12.4,> 30
